Data from patent US10239844B2, “Disubstituted triazole analogs” (BioVentures, LLC, priority 2014, dated 2019).

Experiments:
Assay type in all cases: cell-based, human
CCRF-CEM = assay: NCI 60 panel five-dose growth inhibition, Leukemia; details: for GI50: Homo sapiens
K-562 = assay: NCI 60 panel five-dose growth inhibition, Leukemia; details: K-562, Leukemia; for GI50: Homo sapiens, K562
MOLT-4 = assay: NCI 60 panel five-dose growth inhibition, Leukemia; details: MOLT-4, Leukemia; for GI50: Homo sapiens
RPMI-8226 = assay: NCI 60 panel five-dose growth inhibition, Leukemia; details: RPMI-8226, Leukemia; for GI50: Homo sapiens
A549/ATCC = assay: NCI 60 panel five-dose growth inhibition, Non-Small Cell Lung Cancer; details: for GI50: Homo sapiens
HOP-62 = assay: as above; details: HOP-62, Non-Small Cell Lung Cancer; for GI50: Homo sapiens
HOP-92 = assay: as above; details: HOP-92, Non-Small Cell Lung Cancer; for GI50: Homo sapiens
NCI-H460 = assay: as above; details: for GI50: Homo sapiens
COLO 205 = assay: NCI 60 panel five-dose growth inhibition, Colon Cancer; details: COLO 205, Colon Cancer; for GI50: Homo sapiens
HCC-2998 = assay: as above; details: HCC-2998, Colon Cancer; for GI50: Homo sapiens
HCT-116 = assay: as above; details: HCT-116, Colon Cancer; for GI50: Homo sapiens
1-ICT-15 = assay: as above; details: 1-ICT-15, Colon Cancer; for GI50: Homo sapiens
HT29 = assay: as above; details: for GI50: Homo sapiens, HT-29
KM12 = assay: as above; details: for GI50: Homo sapiens
SW-620 = assay: as above; details: SW-620, Colon Cancer; for GI50: Homo sapiens
SF-268 = assay: NCI 60 panel five-dose growth inhibition, CNS Cancer; details: SF-268, CNS Cancer; for GI50: Homo sapiens
SF-295 = assay: as above; details: SF-295, CNS Cancer; for GI50: Homo sapiens
SF-539 = assay: as above; details: for GI50: Homo sapiens
SNB-19 = assay: as above; details: SNB-19, CNS Cancer; for GI50: Homo sapiens
SNB-75 = assay: as above; details: SNB-75, CNS Cancer; for GI50: Homo sapiens
U251 = assay: as above; details: for GI50: Homo sapiens, U-251
LOX IMVI = assay: NCI 60 panel five-dose growth inhibition, Melanoma; details: for GI50: Homo sapiens
M14 = assay: NCI 60 panel five-dose growth inhibition, Melanoma; details: for GI50: Homo sapiens
MDA-MB-435 = assay: NCI 60 panel five-dose growth inhibition, Melanoma; details: for GI50: Homo sapiens
SK-MEL-2 = assay: NCI 60 panel five-dose growth inhibition, Melanoma; details: SK-MEL-2, Melanoma; for GI50: Homo sapiens
SK-MEL-28 = assay: NCI 60 panel five-dose growth inhibition, Melanoma; details: SK-MEL-28, Melanoma
5K-MEL-5 = assay: NCI 60 panel five-dose growth inhibition, Melanoma; details: 5K-MEL-5, Melanoma; for GI50: Homo sapiens
IGROV1 = assay: NCI 60 panel five-dose growth inhibition, Ovarian Cancer; details: for GI50: Homo sapiens, IGROV-1
OVCA R-3 = assay: as above; details: for GI50: Homo sapiens, OVCAR-3
OVCAR-4 = assay: as above; details: OVCAR-4, Ovarian Cancer; for GI50: Homo sapiens
786-0 = assay: NCI 60 panel five-dose growth inhibition, Renal Cancer; details: 786-0, Renal Cancer; for GI50: Homo sapiens
CAKI-1 = assay: as above; details: CAKI-1, Renal Cancer; for GI50: Homo sapiens
U0-31 = assay: as above; details: U0-31, Renal Cancer; for GI50: Homo sapiens
PC-3 = assay: NCI 60 panel five-dose growth inhibition, Prostate Cancer; details: PC-3, Prostate Cancer; for GI50: Homo sapiens
MCF7 = assay: NCI 60 panel five-dose growth inhibition, Breast Cancer; details: for GI50: Homo sapiens
MDA-MB-468 = assay: as above; details: MDA-MB-468, Breast Cancer; for GI50: Homo sapiens

COc1ccc(-c2n[nH]nc2-c2cc(OC)cc(OC)c2)cc1 [Example 5, 4-(3,5-dimethoxyphenyl)-5-(4-methoxyphenyl)-2H-1,2,3-triazole]
TGI (CCRF-CEM): 46300 nM | GI50 (CCRF-CEM): < 10 nM | GI50 (K-562): < 10 nM | TGI (K-562): >100000 nM | GI50 (MOLT-4): 12 nM | TGI (MOLT-4): 16100 nM | GI50 (RPMI-8226): < 10 nM | TGI (RPMI-8226): 24600 nM | TGI (A549/ATCC): 73400 nM | GI50 (A549/ATCC): < 10 nM | TGI (HOP-62): 72400 nM | GI50 (HOP-62): < 10 nM | TGI (HOP-92): 80 nM | GI50 (HOP-92): < 10 nM | TGI (NCI-H460): 10900 nM | GI50 (NCI-H460): < 10 nM | TGI (COLO 205): 120 nM | GI50 (COLO 205): 29.2 nM | TGI (HCC-2998): 22400 nM | GI50 (HCC-2998): 24.9 nM | TGI (HCT-116): >100000 nM | GI50 (HCT-116): < 10 nM | TGI (1-ICT-15): >100000 nM | GI50 (1-ICT-15): < 10 nM | TGI (HT29): 10800 nM | GI50 (HT29): < 10 nM | TGI (KM12): 50 nM | GI50 (KM12): < 10 nM | GI50 (SW-620): < 10 nM | TGI (SW-620): >100000 nM | GI50 (SF-268): < 10 nM | TGI (SF-268): 90000 nM | GI50 (SF-295): < 10 nM | TGI (SF-295): 27500 nM | GI50 (SF-539; SF-539, CNS Cancer): < 10 nM | TGI (SF-539; SF-539, CNS Cancer): <10 nM | TGI (SF-539; SF-539, as stated in text): less than 10 nM | GI50 (SNB-19): < 10 nM | TGI (SNB-19): >100000 nM | GI50 (SNB-75): < 10 nM | TGI (U251): 16500 nM | GI50 (U251): < 10 nM | TGI (LOX IMVI): >100000 nM | GI50 (LOX IMVI): < 10 nM | TGI (M14): 23000 nM | GI50 (M14): < 10 nM | GI50 (MDA-MB-435; MDA-MB-435, Melanoma): < 10 nM | TGI (MDA-MB-435; MDA-MB-435, Melanoma): <10 nM | TGI (MDA-MB-435; MDA-MB-435, as stated in text): less than 10 nM | GI50 (SK-MEL-2): < 10 nM | TGI (SK-MEL-2): 30500 nM | TGI (SK-MEL-28): 60700 nM | TGI (5K-MEL-5): 20 nM | GI50 (5K-MEL-5): < 10 nM | TGI (IGROV1): 21500 nM | GI50 (IGROV1): < 10 nM | GI50 (OVCA R-3; OVCA R-3, Ovarian Cancer): < 10 nM | TGI (OVCA R-3; OVCA R-3, Ovarian Cancer): <10 nM | TGI (OVCA R-3; OVCAR-3, as stated in text): less than 10 nM | GI50 (OVCAR-4): < 10 nM | TGI (OVCAR-4): >100000 nM | TGI (786-0): 19400 nM | GI50 (786-0): < 10 nM | TGI (CAKI-1): >100000 nM | GI50 (CAKI-1): < 10 nM | GI50 (U0-31): < 10 nM | TGI (U0-31): 25100 nM | GI50 (PC-3): < 10 nM | TGI (PC-3): 35200 nM | TGI (MCF7): >100000 nM | GI50 (MCF7): < 10 nM | GI50 (MDA-MB-468): < 10 nM | TGI (MDA-MB-468): 22400 nM

COc1ccc(-c2n[nH]nc2-c2cc(OC)c(OC)c(OC)c2)cc1 [Example 6, 4-(4-methoxyphenyl)-5-(3,4,5-trimethoxyphenyl)-2H-1,2,3-triazole]
TGI (CCRF-CEM): >100000 nM | GI50 (CCRF-CEM): 33.7 nM | GI50 (K-562): < 10 nM | TGI (K-562): >100000 nM | GI50 (MOLT-4): 39.9 nM | TGI (MOLT-4): 11600 nM | GI50 (RPMI-8226): 32.5 nM | TGI (RPMI-8226): 11000 nM | TGI (A549/ATCC): 22600 nM | GI50 (A549/ATCC): 22.9 nM | TGI (HOP-62): 19300 nM | GI50 (HOP-62): 18.2 nM | TGI (HOP-92): 540 nM | GI50 (HOP-92): < 10 nM | TGI (NCI-H460): 20000 nM | GI50 (NCI-H460): 24.6 nM | TGI (COLO 205): 70 nM | GI50 (COLO 205): 26.7 nM | TGI (HCC-2998): 17500 nM | GI50 (HCC-2998): 39.4 nM | TGI (HCT-116): 810 nM | GI50 (HCT-116): < 10 nM | TGI (1-ICT-15): >100000 nM | GI50 (1-ICT-15): < 10 nM | TGI (HT29): 12300 nM | GI50 (HT29): 25.3 nM | TGI (KM12): 11200 nM | GI50 (KM12): < 10 nM | GI50 (SW-620): < 10 nM | TGI (SW-620): >100000 nM | GI50 (SF-268): 68.5 nM | TGI (SF-268): >100000 nM | GI50 (SF-295): < 10 nM | TGI (SF-295): 42800 nM | GI50 (SF-539; SF-539, CNS Cancer): < 10 nM | GI50 (SNB-19): 29.4 nM | TGI (SNB-19): >100000 nM | GI50 (SNB-75): < 10 nM | TGI (SNB-75): 21900 nM | TGI (U251): 22700 nM | GI50 (U251): 20.1 nM | TGI (LOX IMVI): 37800 nM | GI50 (LOX IMVI): 17.5 nM | GI50 (M14): < 10 nM | GI50 (MDA-MB-435; MDA-MB-435, Melanoma): < 10 nM | GI50 (SK-MEL-2): < 10 nM | TGI (SK-MEL-2): 18100 nM | GI50 (SK-MEL-28; Homo sapiens): > 100 nM | TGI (SK-MEL-28): 34800 nM | TGI (5K-MEL-5): 160 nM | GI50 (5K-MEL-5): < 10 nM | TGI (IGROV1): 30300 nM | GI50 (IGROV1): 33.2 nM | GI50 (OVCA R-3; OVCA R-3, Ovarian Cancer): < 10 nM | TGI (OVCA R-3; OVCA R-3, Ovarian Cancer): <10 nM | GI50 (OVCAR-4): 33.6 nM | TGI (OVCAR-4): 57200 nM | TGI (786-0): 13500 nM | GI50 (786-0): < 10 nM | TGI (CAKI-1): >100000 nM | GI50 (CAKI-1): < 10 nM | GI50 (U0-31): < 10 nM | TGI (U0-31): 24600 nM | GI50 (PC-3): 18.4 nM | TGI (PC-3): 39400 nM | TGI (MCF7): 37900 nM | GI50 (MCF7): < 10 nM | GI50 (MDA-MB-468): 14.7 nM | TGI (MDA-MB-468): 30500 nM
